Results reported in patent US20240383869A1, “ARYLACETYL INHIBITORS OF TG2 AND USES THEREOF” (UNIVERSITY OF OTTAWA, priority 2021, published 2024).
Like-named read-outs stand apart in the source and are kept apart here. Where a SMILES comes first, the peptide text is derived from it. [ ]: non-standard residue; d: D form. The star is where a group is joined. DON = [N-]=[N+]=CC(=O)CC[C@H](N)C(=O)O; Cbz = O=C(OCc1ccccc1)*

Experiments:
[1] = molecular target: T1, hTG2 (Homo sapiens, UniProt P21980); test: In vitro GTP binding assay (BODIPY GTP-γ-S fluorescence); details: inhibitor 2×KI, 30 minutes at 25° C.; 3 μM BODIPY GTP-γ-S
T1 sequence (P21980 1-687): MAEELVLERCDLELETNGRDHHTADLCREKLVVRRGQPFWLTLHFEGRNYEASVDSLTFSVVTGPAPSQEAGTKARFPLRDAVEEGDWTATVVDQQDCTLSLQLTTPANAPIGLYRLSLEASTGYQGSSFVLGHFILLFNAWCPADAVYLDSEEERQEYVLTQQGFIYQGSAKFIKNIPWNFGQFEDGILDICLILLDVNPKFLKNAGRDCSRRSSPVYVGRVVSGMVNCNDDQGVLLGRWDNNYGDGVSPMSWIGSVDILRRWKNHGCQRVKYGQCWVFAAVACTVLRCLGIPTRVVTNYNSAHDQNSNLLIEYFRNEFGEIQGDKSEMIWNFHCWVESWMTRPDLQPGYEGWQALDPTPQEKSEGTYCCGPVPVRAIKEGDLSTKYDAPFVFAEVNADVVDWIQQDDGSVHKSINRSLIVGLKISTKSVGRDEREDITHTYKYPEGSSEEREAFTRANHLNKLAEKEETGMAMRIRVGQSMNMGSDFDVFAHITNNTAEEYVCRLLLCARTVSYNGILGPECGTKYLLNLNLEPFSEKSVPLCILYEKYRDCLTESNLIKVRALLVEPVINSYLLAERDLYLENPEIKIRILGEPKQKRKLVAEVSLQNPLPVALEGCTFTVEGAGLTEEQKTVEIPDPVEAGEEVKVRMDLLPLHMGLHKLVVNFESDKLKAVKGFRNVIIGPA
Experimental: Previously we proposed a mechanism of action for the NC9, VA4 and AA9 inhibitors based on their ability to react covalently with the open conformation of TG2, locking the enzyme in that conformation and thereby abolishing the enzyme's ability to bind GTP and act as a G-protein. […] We used the same in vitro GTP binding assay to measure the ability of representative phenylacetyl inhibitors 67 and 72 to abolish GTP binding, as follows:
In vitro GTP binding assay. GTP binding was measured using a method similar to that reported previously (McEwen, D. P. et al., “Fluorescent BODIPY-GTP analogs: Real-time measurement of nucleotide binding to G proteins.” Anal. Biochem. 2001, 291 (1), 109-117). […] The buffer was then exchanged to 100 mM MOPS (pH=7.0), 1 mM EGTA and 5 mM MgCl2 to remove calcium via dialysis using a 10-kDa molecular weight cut off membrane. The fluorescent GTP analog was added to give a final concentration of 3.0 μM and fluorescence was measured on a microplate reader after 10 minutes of incubation (Ex/Em: 490/520 nm).

[2] = molecular target: T1, hTG2; test: biochemical; details: fit to saturation kinetics model, 25° C., pH 6.95, 100 μM AL5; for Ki: read-out: KI (converted); for kinact: read-out: kinact (converted); for kinact/KI: read-out: kinact/KI (converted)
Experimental: The ability of the compounds to inhibit TG2 transamidase activity and the kinetics of TG2 inhibition were investigated using a colorimetric activity assay, as follows:
Colorimetric transamidase activity assay. The activities of hTG1, hTG2 and hTG6 were measured via a colorimetric assay using the chromogenic substrate Cbz-Glu(γ-p-nitrophenyl ester)Gly (AL5), as described (Leblanc, A. et al., “Kinetic studies of guinea pig liver transglutaminase reveal a general-base-catalyzed deacylation mechanism.” Biochemistry 2001, 40 (28), 8335-8342). Assays were conducted at 25° C. in 50 mM MOPS buffer (pH 6.95) containing 7.5 mM CaCl2. […] The substrate AL5 was prepared in as a stock solution in DMSO such that the final concentration of this co-solvent was constant at 2.5% v/v. Stock solutions of the inhibitors were made in water ranging in concentration from 100-500 μM. The reaction was initiated with the addition of enzyme, 0.10 μM hTG1, 0.25 μM hTG2 (4.6 mU/mL) or 0.32 μM hTG6. Formation of hydrolysis product, p-nitrophenolate (pNP), was monitored at 405 nm in a polystyrene 96-well microplate using a BioTek Synergy 4 plate reader. The observed first-order rate constants of inactivation (kobs) were determined via non-linear regression fit to a mono-exponential model (Eqn 1) of absorbance versus time curves. These rate constants (kobs) were in turn fit to a saturation kinetics model (Eqn 2), by non-linear regression, providing the kinetic parameters kinact and KI, as previously described by Stone and Hofsteenge (Stone, S. R. and Hofsteenge, J., “Specificity of activated human protein C.” Biochem. J. 1985, 230 (2), 497-502). […] Experiments were completed in triplicate at minimum.
Fitting of this time-dependent inactivation to a monoexponential equation gave first-order rate constants, kobs. […] In some cases, the kinetic data were fitted to a linear double reciprocal equation.

[3] = system: SCC-13 cells; test: ECS cell invasion through Matrigel (Transwell); type: cell-based; details: 0-100 μM inhibitor, 18 h, read-out: EC50 for inhibition of ECS invasion
Experimental: One well-known property of tumour-initiating cells associated with cancer metastasis is the enhanced ability to invade Matrigel (collagen). For example, it has been shown that epidermal cancer stem (ECS) cells invade Matrigel more efficiently than non-stem cancer cells, and that these properties are associated with enhanced tumour formation (Adhikary, G. et al., PLoS ONE 2013, 8, e84324. https://doi.org/10.1371/journal.pone.0084324). We have shown previously that ˜20 μM of NC9 and 3.9 μM of VA4 can reduce ECS cell invasion through Matrigel by ˜50% relative to vehicle-treated cells (Akbar, A. et al., J. Med. Chem. 2017, 60, 7910-7927. https://doi.org/10.1021/acs.jmedchem.7b01070; Fisher, M. L. et al., Oncotarget 2015, 6, 20525-20539. https://doi.org/10.18632/oncotarget.3890).
Materials and Methods for cell invasion data. To measure cell invasion, Matrigel (Corning, catalogue no. 354234) was diluted to 250 μg/mL and 120 μL was added to the upper chambers of a Transwell plate (Corning, no. 353097, 1-cm diameter, 8-μm pore size) and allowed to solidify. SCC-13 cells were suspended in spheroid medium (Fisher, M. L. et al., Cancer Res. 2016, 76, 7265-7275. https://doi.org/10.1158/0008-5472.can-16-2032; Adhikary, G. et al., Carcinogenesis 2015, 36, 800-810. https://doi.org/10.1093/carcin/bgv064) containing 1% foetal calf serum (FCS), and 20,000 cells were plated into each upper chamber atop the Matrigel. The bottom chamber contained spheroid medium supplemented with 10% FCS and 0-100 μM of inhibitor. After incubation for 18 h in a 37° C. incubator, cells in the top chamber were removed with a swab and cells on the lower surface of the membrane were fixed with 4% paraformaldehyde and the nuclei were stained with 4′,6-diamidino-2-phenylindole. Cell number was counted in multiple fields (n=4) using a fluorescence microscope, normalized with respect to the number counted in the presence of vehicle only, and expressed as mean±standard deviation.

[4] = system: SCC-13 cells; details: shown previously; read-out: concentration reducing ECS cell invasion through Matrigel by ~50% relative to vehicle-treated cells; cited from earlier work
[5] = system: TG2 relative to other human transglutaminases; details: shown previously (Akbar et al. 2017); cited from earlier work
[6] = molecular target: T1, hTG2; details: shown previously; cited from earlier work
[7] = system: glioblastoma multiforme (GBM) cell lines; details: Zhang et al. 2013; cited from earlier work

## C=CC(=O)NCCCC[C@H](NC(=O)Cc1ccccc1)C(=O)N1CCN(C(=O)c2cccc3ccccc23)CC1 [Inhibitor 67, (S)-N-(6-(4-(1-naphthoyl)piperazin-1-yl)-6-oxo-5-(2-phenylacetamido)hexyl)acrylamide]
[1]
  inhibition of GTP binding of hTG2: abolished the GTP binding ability

## C=CC(=O)NCCCC[C@H](NC(=O)Cc1ccccc1Cl)C(=O)N1CCN(C(=O)c2cccc3ccccc23)CC1 [Inhibitor 76, (S)-N-(6-(4-(1-naphthoyl)piperazin-1-yl)-5-(2-(2-chlorophenyl)acetamido)-6-oxohexyl)acrylamide]
[2]
  Ki: 18 ± 6.9 µM
  kinact: 0.0883 s⁻¹
  kinact/KI: 4920 M⁻¹ s⁻¹
[3]
  EC50: 92 ± 2 µM

## C=CC(=O)NCCCC[C@H](NC(=O)Cc1ccccc1Br)C(=O)N1CCN(C(=O)c2cccc3ccccc23)CC1 [Inhibitor 77, (S)-N-(6-(4-(1-naphthoyl)piperazin-1-yl)-5-(2-(2-bromophenyl)acetamido)-6-oxohexyl)acrylamide]
[2]
  Ki: 9.8 ± 1.5 µM
  kinact: 0.0517 s⁻¹
  kinact/KI: 5170 M⁻¹ s⁻¹
[3]
  EC50: 94 ± 2 µM

## C=CC(=O)NCCCC[C@H](NS(C)(=O)=O)C(=O)N1CCN(C(=O)c2cccc3ccccc23)CC1 [Inhibitor 91, (S)-N-(6-(4-(1-naphthoyl)piperazin-1-yl)-5-(methylsulfonamido)-6-oxohexyl)acrylamide]
[2]
  Ki: 25.3 ± 7.1 µM
  kinact: 0.0095 s⁻¹
  kinact/KI: 377 M⁻¹ s⁻¹

## C=CC(=O)NCCCC[C@H](NC(=O)OCc1ccccc1)C(=O)NCCOCCOCCNS(=O)(=O)c1cccc2c(N(C)C)cccc12 [NC9]
[4]
  EC50: ~20 µM
[5]
  selectivity for TG2 compared to the other major transglutaminase isozymes: good selectivity for TG2

## C=CC(=O)NCCCC[C@H](NC(=O)OCc1ccccc1)C(=O)N1CCN(S(=O)(=O)c2cccc3c(N(C)C)cccc23)CC1 [VA4]
[6]
  suppression of TG2 binding of GTP-γ-S-FL BODIPY: suppress the ability of TG2 to bind GTP-γ-S-FL BODIPY
[4]
  EC50: 3.9 µM
[5]
  selectivity for TG2 compared to the other major transglutaminase isozymes: good selectivity for TG2

## COC(=O)[C@H](CC(C)C)NC(=O)[C@@H]1CCCN1C(=O)[C@@H](NC(=O)[C@H](CCC(=O)C=[N+]=[N-])NC(=O)OCc1ccccc1)C(C)C [Z-DON] (Cbz-[DON]VPL-OMe)
[7]
  proliferation of GBM cell lines: reduce proliferation in two out of three

## CN(C)c1cccc2c(S(=O)(=O)NCCCCCN)cccc12 [monodansylcadaverine]
[7]
  proliferation of GBM cell lines: reduce proliferation in two out of three
